# Patent US8575186B2, “Epiminocycloalkyl[b] indole derivatives as serotonin sub-type 6 (5-HT6) modulators and uses thereof” (Albany Molecular Research, Inc., priority 2009, dated 2013)
# pKi: −log10 of the molar value. Read-outs that look alike come from different tables or passages of the source.
# How the values were obtained:
# human 5-HT6 receptor = human 5-HT6 receptor (Homo sapiens (Human), UniProt P50406); experiment: radioligand binding assay (SPA format), [N-methyl-3H]-LSD; conditions: read-out: human 5HT6 Ki, human 5-HT6 receptor membranes, 10 nM [3H]-LSD
# 5HT6 receptor = 5HT6 receptor (Rattus norvegicus (Rat), UniProt P31388); experiment: ex vivo receptor occupancy measurements; assay type: in vivo; conditions: oral dosing at 30 mg/kg, Sprague-Dawley rats
# Method: This table illustrates representative compounds tested for 5HT6 affinity in the human binding assay. […] Example 158 had 42% occupancy of the 5HT6 receptor after oral dosing at 30 mg/kg using ex vivo receptor occupancy measurements in Sprague-Dawley rats.
# Chain of human 5-HT6 receptor (P50406 whole entry): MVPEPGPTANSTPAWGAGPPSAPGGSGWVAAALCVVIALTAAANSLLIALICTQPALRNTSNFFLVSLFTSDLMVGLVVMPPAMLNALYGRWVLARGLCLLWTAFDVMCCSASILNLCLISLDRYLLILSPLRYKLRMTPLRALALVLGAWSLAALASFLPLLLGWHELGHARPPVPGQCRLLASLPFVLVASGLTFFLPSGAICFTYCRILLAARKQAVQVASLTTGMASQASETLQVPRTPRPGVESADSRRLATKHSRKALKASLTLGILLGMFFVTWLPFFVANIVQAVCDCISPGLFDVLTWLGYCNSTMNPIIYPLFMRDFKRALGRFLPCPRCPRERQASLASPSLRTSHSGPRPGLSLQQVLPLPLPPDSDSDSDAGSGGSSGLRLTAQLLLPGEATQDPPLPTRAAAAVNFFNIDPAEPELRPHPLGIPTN
# Chain of 5HT6 receptor (P31388 whole entry): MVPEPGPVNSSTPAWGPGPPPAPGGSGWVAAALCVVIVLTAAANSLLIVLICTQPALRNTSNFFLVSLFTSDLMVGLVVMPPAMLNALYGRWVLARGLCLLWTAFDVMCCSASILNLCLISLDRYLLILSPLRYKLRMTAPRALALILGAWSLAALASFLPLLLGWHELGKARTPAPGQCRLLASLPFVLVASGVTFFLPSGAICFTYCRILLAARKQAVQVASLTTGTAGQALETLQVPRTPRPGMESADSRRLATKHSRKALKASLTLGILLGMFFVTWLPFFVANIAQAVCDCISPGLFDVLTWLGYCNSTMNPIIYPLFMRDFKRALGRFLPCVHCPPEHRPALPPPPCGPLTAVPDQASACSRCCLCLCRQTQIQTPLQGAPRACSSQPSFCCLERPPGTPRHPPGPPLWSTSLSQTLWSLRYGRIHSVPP
Structure (SMILES),pKi (human 5-HT6 receptor),melting point,pKi (human 5-HT6 receptor; hydrochloride),receptor occupancy at 30 mg/kg (5HT6 receptor)
"Cl.Cn1c2c(c3ccc(S(=O)(=O)c4ccccc4)cc31)C1CCC(C2)N1 (stereo not shown) [Example 91, 3-Phenylsulfonyl-5-methyl-5,6,7,8,9,10-hexahydro-7,10-epiminocyclohepta[b]indole hydrochloride]",6.94,252 to 256 °C,,
"CN1C2CCC1c1c(n(C)c3ccc(S(=O)(=O)c4ccsc4)cc13)C2.Cl (stereo not shown) [Example 70, 2-(3-thienyl)sulfonyl-5-methyl-5,6,7,8,9,10-hexahydro-7,10-N-methyl-epiminocyclohepta[b]indole hydrochloride]",8.09,238 to 240 °C,,
"Cl.Cn1c2c(c3cc(S(=O)(=O)c4ccccc4)cc(F)c31)C1CCC(C2)N1 (stereo not shown) [Example 81, 2-(Phenylsulfonyl)-4-fluoro-5-methyl-5,6,7,8,9,10-hexahydro-7,10-epiminocyclohepta[b]indole hydrochloride]",7.89,251 to 256 °C (dec.),,
"Cl.Cn1c2c(c3cc(S(=O)(=O)c4ccccc4)cc(Cl)c31)C1CCC(C2)N1 (stereo not shown) [Example 82, 2-Phenylsulfonyl-4-chloro-5-methyl-5,6,7,8,9,10-hexahydro-7,10-epiminocyclohepta[b]indole hydrochloride]",7.66,258 to 264 °C (dec.),,
"Cl.Cn1c2c(c3cc(S(=O)(=O)c4cccc(OC(F)F)c4)ccc31)C1CCC(C2)N1 (stereo not shown) [Example 40, 2-(3-Difluoromethoxyphenyl)sulfonyl-5-methyl-5,6,7,8,9,10-hexahydro-7,10-epiminocyclohepta[b]indole hydrochloride]",8.24,186 to 190 °C (dec.),,
"CCOc1cc(S(=O)(=O)c2ccccc2)cc2c3c(n(C)c12)CC1CCC3N1.Cl (stereo not shown) [Example 84, 2-Phenylsulfonyl-4-ethoxy-5-methyl-5,6,7,8,9,10-hexahydro-7,10-epiminocyclohepta[b]indole hydrochloride]",,182 to 184 °C,9.00,
"Cl.Cn1c2c(c3cc(S(=O)(=O)c4ccc(Cl)cc4)ccc31)C1CCC(C2)N1 (stereo not shown) [Example 51, 2-(4-Chlorophenyl)sulfonyl-5-methyl-5,6,7,8,9,10-hexahydro-7,10-epiminocyclohepta[b]indole hydrochloride]",7.43,310 to 320 °C,,
"Cc1cc(S(=O)(=O)c2cccc(C(F)(F)F)c2)cc2c3c(n(C)c12)CC1CCC3N1.Cl (stereo not shown) [Example 75, 2-(3-Trifluoromethyl-phenyl)sulfonyl-4,5-dimethyl-5,6,7,8,9,10-hexahydro-7,10-epiminocyclohepta[b]indole hydrochloride]",8.44,227 to 229 °C,,
"Cc1ccccc1S(=O)(=O)c1ccc2c(c1)c1c(n2C)CC2CCC1N2.Cl (stereo not shown) [Example 52, 2-(2-Methylphenyl)sulfonyl-5-methyl-5,6,7,8,9,10-hexahydro-7,10-epiminocyclohepta[b]indole hydrochloride]",7.96,186 to 188 °C,,
"CNc1cccc(S(=O)(=O)c2ccc3c(c2)c2c(n3C)CC3CCC2N3)c1.Cl (stereo not shown) [Example 46, 2-[(3-N-Methylamino)phenyl]sulfonyl-5-methyl-5,6,7,8,9,10-hexahydro-7,10-epiminocyclohepta[b]indole hydrochloride]",8.19,208 to 212 °C (dec.),,
"Cc1cc(S(=O)(=O)c2ccccc2)cc2c3c(n(C)c12)CC1CCC3N1.Cl (stereo not shown) [Example 71, 2-Phenylsulfonyl-4,5-dimethyl-5,6,7,8,9,10-hexahydro-7,10-epiminocyclohepta[b]indole hydrochloride]",8.48,244 to 248 °C,,
"CC(C)n1c2c(c3cc(S(=O)(=O)c4ccccc4)ccc31)C1CCC(C2)N1.Cl (stereo not shown) [Example 87, 2-Phenylsulfonyl-5-isopropyl-5,6,7,8,9,10-hexahydro-7,10-epiminocyclohepta[b]indole hydrochloride]",,260 to 265 °C,6.46,
"Cl.Cn1c2c(c3cc(S(=O)(=O)c4cncc(F)c4)ccc31)C1CCC(C2)N1 (stereo not shown) [Example 59, 2-[3-(5-Fluoro)-pyridine]sulfonyl-5-methyl-5,6,7,8,9,10-hexahydro-7,10-epiminocyclohepta[b]indole hydrochloride]",6.86,212 to 215 °C,,
"Cl.Cn1c2c(c3cc(S(=O)(=O)c4ccccn4)ccc31)C1CCC(C2)N1 (stereo not shown) [Example 60, 2-(2-Pyridine)sulfonyl-5-methyl-5,6,7,8,9,10-hexahydro-7,10-epiminocyclohepta[b]indole hydrochloride]",6.71,222 to 225 °C,,
"Cc1cn(S(=O)(=O)c2ccc3c(c2)c2c(n3C)CC3CCC2N3)c2ccccc12.Cl (stereo not shown) [Example 68, 2-[1-(3-Methyl)-indole]sulfonyl-5-methyl-5,6,7,8,9,10-hexahydro-7,10-epiminocyclohepta[b]indole hydrochloride]",,212 to 215 °C,8.92,
Cn1c2c(c3cc(S(=O)(=O)c4cccc(Cl)c4)ccc31)C1CCC(C2)N1 (stereo not shown) [Example 158],8.72,,,42%
"Cl.Cn1c2c(c3cc(S(=O)(=O)c4cccnc4)ccc31)C1CCC(C2)N1 (stereo not shown) [Example 61, 2-(3-Pyridine)sulfonyl-5-methyl-5,6,7,8,9,10-hexahydro-7,10-epiminocyclohepta[b]indole hydrochloride]",6.81,226 to 228 °C,,
